From patent EP0377642B1, “HERBICIDES FOR WEED CONTROL IN RICE” (E.I. DU PONT DE NEMOURS AND COMPANY, priority 1987, dated 1989)
Where two headings read alike, the source gives them in different places.

How the values were obtained:
Assay type in all cases: in vivo
direct seeded rice [1] = assay: Field test applied 7 DAS in direct seeded rice in the Philippines, phytotoxicity (Table 14); conditions: 30 DAA
Description: (§1) Methyl 2-[[[[(4-methoxy-6-methyl-1,3,5-triazin-2-yl)amino]carbonyl]amino]sulfonyl]benzoate (Compound 1) and mixtures thereof with other compounds were applied as a spray (using a hand sprayer) to rice (either transplanted or direct seeded) in several rice growing areas in Southeast Asia and in the U.S. Tables 1-28 contain the results of these tests and clearly exemplify the utility of this invention. The details of each application are included in the appropriate table. [drawing 2]

Sphenoclea zeylanica [2] = assay: Herbicidal efficacy with Bensulfuron methyl and 2,4-D in Thailand (Table 19); conditions: 13 days after treatment
Description: as §1

rice [3] = assay: as above; conditions: 13 days after treatment
Description: as §1

Cuperus difformis = assay: as above; conditions: 13 days after treatment
Description: as §1

WEED [4] = assay: Effects in combination with Bensulfuron Methyl and Thiobencarb or Pretilachlor on weed control (Table 25); conditions: rate 25 g ai/ha, scale 0 to 10, treated at 2.0 leaf stage, evaluated four weeks later
Description: as §1

Sphenoclea zeylanica [5] = assay: Field test applied at 7 DAS in direct seeded rice (Table 11); conditions: scale 0-10
Description: as §1

Cyperus difformis = assay: as above; conditions: scale 0-10
Description: as §1

direct seeded rice [6] = conditions: for PHYTO at 2WAA: scale 0-10
Description: as §1

WEED [7] = assay: Effects in combination with Bensulfuron Methyl and Thiobencarb or Pretilachlor on weed control (Table 24); conditions: rate 25 g ai/ha, scale 0 to 10, treated at 1.0 leaf stage, evaluated four weeks later
Description: as §1

rice [8] = assay: Effects in combination with Bensulfuron Methyl and Thiobencarb or Pretilachlor on rice growth (Table 23); conditions: rate 25 g ai/ha; var. Koshihikari, applied 7 days after transplanting, rated 21 days after application
Description: as §1

WEED [9] = assay: Field test applied 7 DAS in direct seeded rice in the Philippines, weed cover (Table 14); conditions: 47 DAA
Description: as §1

Sphenoclea zeylanica [10] = assay: Field test with Bensulfuron methyl in direct seeded rice (Table 10); conditions: 10 = complete control
Description: as §1

Cyperus iria = assay: as above; conditions: 10 GAI/HA; 10 = complete control
Description: as §1
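For YIELD in this document: yield in Tons/ha.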

COC(=O)c1ccccc1CS(=O)(=O)NC(=O)Nc1nc(OC)cc(OC)n1 [Bensulfuron methyl, methyl 2-[[[[[(4,6-dimethoxy-2-pyrimidinyl)amino]carbonyl]amino]sulfonyl]methyl]benzoate]
PHYTO (1-9) (direct seeded rice [1]; 8.25 G AI/HA): 1.3
PHYTO (1-9) (direct seeded rice [1]; 12.0 G AI/HA): 1
PHYTO (1-9) (direct seeded rice [1]; 16.50 G AI/HA): 1.7
% CONTROL OR INJURY SZ (Sphenoclea zeylanica [2]; 10 GAI/HA): 88%
% CONTROL OR INJURY SZ (Sphenoclea zeylanica [2]; 15 GAI/HA): 100%
% CONTROL OR INJURY SZ (Sphenoclea zeylanica [2]; 20 GAI/HA): 100%
% CONTROL OR INJURY RICE (rice [3]; 10 GAI/HA): 0%
% CONTROL OR INJURY RICE (rice [3]; 15 GAI/HA): 0%
% CONTROL OR INJURY RICE (rice [3]; 20 GAI/HA): 0%
% CONTROL OR INJURY CD (Cuperus difformis; 10 GAI/HA): 100%
% CONTROL OR INJURY CD (Cuperus difformis; 15 GAI/HA): 100%
% CONTROL OR INJURY CD (Cuperus difformis; 20 GAI/HA): 100%
WEED CONTROL RATINGS CD (WEED [4]; Cyperus difformis): 10
WEED CONTROL RATINGS CS (WEED [4]; Cyperus serotinus): 2
WEED CONTROL RATINGS EO (WEED [4]; Echinochloa oryzicola): 1
WEED CONTROL RATINGS BL (WEED [4]; Lindernia pyxidaria): 9
WEED CONTROL RATINGS MV (WEED [4]; Monochoria vaginalis): 9
WEED CONTROL RATINGS SP (WEED [4]; Sagittaria pygmaea): 8
WEED CONTROL RATINGS SJ (WEED [4]; Scirpus juncoides): 5
WEED CONTROL at 6 WAA SZ (Sphenoclea zeylanica [5]; 10 GM.A.I./HA): 10
WEED CONTROL at 6 WAA SZ (Sphenoclea zeylanica [5]; 15 GM.A.I./HA): 10
WEED CONTROL at 6 WAA SZ (Sphenoclea zeylanica [5]; 20 GM.A.I./HA): 10
WEED CONTROL at 6 WAA SZ (Sphenoclea zeylanica [5]; 30 GM.A.I./HA): 10
WEED CONTROL at 6 WAA CD (Cyperus difformis; 10 GM.A.I./HA): 10
WEED CONTROL at 6 WAA CD (Cyperus difformis; 15 GM.A.I./HA): 10
WEED CONTROL at 6 WAA CD (Cyperus difformis; 20 GM.A.I./HA): 10
WEED CONTROL at 6 WAA CD (Cyperus difformis; 30 GM.A.I./HA): 10
YIELD (direct seeded rice [6]; 7 DAS, 10 GM.A.I./HA): 4.92 TONS/HA
PHYTO at 2WAA (direct seeded rice [6]; 7 DAS, 10 GM.A.I./HA): 0
YIELD (direct seeded rice [6]; 7 DAS, 15 GM.A.I./HA): 4.99 TONS/HA
PHYTO at 2WAA (direct seeded rice [6]; 7 DAS, 15 GM.A.I./HA): 0
YIELD (direct seeded rice [6]; 7 DAS, 20 GM.A.I./HA): 5.01 TONS/HA
PHYTO at 2WAA (direct seeded rice [6]; 7 DAS, 20 GM.A.I./HA): 0
YIELD (direct seeded rice [6]; 7 DAS, 30 GM.A.I./HA): 4.67 TONS/HA
PHYTO at 2WAA (direct seeded rice [6]; 7 DAS, 30 GM.A.I./HA): 0
YIELD (direct seeded rice [6]; 18 DAS, 10 GM.A.I./HA): 4.61 TONS/HA
PHYTO at 2WAA (direct seeded rice [6]; 18 DAS, 10 GM.A.I./HA): 0
YIELD (direct seeded rice [6]; 18 DAS, 15 GM.A.I./HA): 4.49 TONS/HA
PHYTO at 2WAA (direct seeded rice [6]; 18 DAS, 15 GM.A.I./HA): 0
YIELD (direct seeded rice [6]; 18 DAS, 20 GM.A.I./HA): 4.61 TONS/HA
PHYTO at 2WAA (direct seeded rice [6]; 18 DAS, 20 GM.A.I./HA): 0
YIELD (direct seeded rice [6]; 18 DAS, 30 GM.A.I./HA): 5.17 TONS/HA
PHYTO at 2WAA (direct seeded rice [6]; 18 DAS, 30 GM.A.I./HA): 0
WEED CONTROL RATINGS CD (WEED [7]; Cyperus difformis): 1
WEED CONTROL RATINGS CS (WEED [7]; Cyperus serotinus): 6
WEED CONTROL RATINGS EO (WEED [7]; Echinochloa oryzicola): 1
WEED CONTROL RATINGS BL (WEED [7]; Lindernia pyxidaria): 10
WEED CONTROL RATINGS MV (WEED [7]; Monochoria vaginalis): 10
WEED CONTROL RATINGS SP (WEED [7]; Sagittaria pygmaea): 8.5
WEED CONTROL RATINGS SJ (WEED [7]; Scirpus juncoides): 5
CROP TOLERANCE DW (Dry weight relative to untreated check) (rice [8]): 79%
CROP TOLERANCE PH (Plant height relative to untreated check) (rice [8]): 89%
CROP TOLERANCE VA (Visual crop injury) (rice [8]): 2.5%
% WEED COVER (WEED [9]; 8.25 G AI/HA): 29%
% WEED COVER (WEED [9]; 12.0 G AI/HA): 20%
% WEED COVER (WEED [9]; 16.50 G AI/HA): 28%
WEEDS CONTROL at 4 WAA SZ (Sphenoclea zeylanica [10]; 10 GAI/HA): 0
WEEDS CONTROL at 4 WAA SZ (Sphenoclea zeylanica [10]; 20 GAI/HA): 6
WEEDS CONTROL at 4 WAA CI (Cyperus iria): 2
